In turn, `CC(=O)OCC(=O)C1CCC2C3CCC4CC(OS(=O)(=O)c5ccc(C)cc5)CCC4(C)C3C(=O)CC12C` (centres undefined) gave a melting point of 155 to 156 °C. The compound `N#Cc1cc(-c2cc(C(F)F)c3c(-c4cccnc4)n[nH]c3n2)ccc1N` gave a melting point of 296 °C. As for `CCCCc1nc(C(O)CCC)c(C(N)=O)n1Cc1ccc(-c2ccccc2C(=O)O)cc1` (centres undefined), the melting point was more than 110 °C. Then `CN=Cc1cccc(C(=O)NC)c1`, with 87 °C; and `CCOC(=O)C1=C(N)NC2=C(C(=O)CCC2)C1c1cccc(C(=O)OCC)c1` (centres undefined), with 234 °C; and `O=C1N(Cc2ccccn2)c2cccc(Br)c2C1(O)c1cc2c(cc1O)OCC2` (centres undefined), with more than 225 °C. Then `COc1cc(-c2cc(=O)c3ccc(OCC4CO4)cc3o2)cc(OC)c1OC` (centres undefined), with 187 to 188 °C. `CCON=C(C(=O)OCC)c1csc(NC(c2ccccc2)(c2ccccc2)c2ccccc2)n1` showed a melting point of 165 °C. `CC(C)c1nn(-c2ccc(C(F)(F)F)cn2)cc1CCCOc1c(Br)cccc1CC(=O)O` came in with a melting point of 146 to 147 °C.

Take `Nc1c(O)cc(Cl)cc1C(=O)C(F)(F)F`: the melting point is 120 to 122 °C.

Compound `O=C(Nc1ccc2nc(CN3CCCCC3)ccc2c1)c1ccc(-c2ccc(F)cc2F)nc1` had a melting point of 182 to 183 °C. Then `CCCc1c[nH]cc2c(=O)n(-c3ccc(OC)cc3)nc1-2`, with 165 °C; and `O=C(O)CCC(=O)c1ccc(C2CCCCC2)cc1`, with 140 to 141 °C; and `CCOC(=O)C1=C(N)OC(C)=C(C(=O)OC)C1c1cccc([N+](=O)[O-])c1` (centres undefined), with 134 °C. In the case of `CN1C[C@@H]2C[C@H]1CN2c1cc2c(cc1F)c(=O)c(C=O)cn2C1CC1`, the melting point lay within 274 to 275 °C. The same measure for `Cc1ccc(S(=O)(=O)N2C=Cc3cccc(-n4cccc4)c3C2C#N)cc1` (centres undefined): 160 °C; for `OCC1OC(n2cc(Cc3ccc(C4CC4)cc3)c3c(F)cccc32)C(O)C(O)C1O` (centres undefined): 110 to 112 °C. Then `CNC(=O)C1CC(C)CCC1C(C)C` (centres undefined), with 95 to 97 °C; and `CCOc1ccc2c(c1)C(C)(c1cc(N)ccc1Cl)C(=O)N2` (centres undefined), with 166 °C; and `CS(=O)(=O)C(=C1CN(C(c2ccccc2)c2ccccc2)C1)c1cccc(OC(F)(F)F)c1`, with 162 °C. Regarding `CCOC(=O)c1c(-c2ccc(O)cc2)nc2ccccn12`, the melting point turned out to be 220 °C.

In the case of `COc1cc(C=CC(=O)c2ccc(O)c(CC(=O)O)c2)cc(OC)c1OC`, the melting point came to 210 °C. As for `O=C(NCCO)C(=O)c1ccc(OCCOc2ccc3ccccc3c2)cc1`, the melting point lay within 138 to 140 °C.

`CCCCc1c(Cl)nc(NC=O)nc1Cl` displayed a melting point of 82 to 83 °C. In turn, `O=C(O)c1ccc(C(=O)Nc2ccc(C(=O)N3CCCc4ccccc43)cc2)cc1` showed a melting point of more than 300 °C. Then `CC1(C)CCC(C)(C)c2cc(C(O)COc3ccc(C(=O)NN4CCCCC4)c(O)c3)ccc21` (centres undefined), with 124 °C; and `CC(=O)c1nc2ccc(C)cc2cc1O`, with 124 to 126 °C.

Compound `COc1ccc(C2C(C#N)=C(N)OC3=C2C(=O)CC(c2cccc4ccccc24)C3)cc1` (centres undefined) returned a melting point of 194 to 197 °C.

Take `O=C(Cc1ccc(F)cc1)Nc1cccc2nc(N[C@@H]3CCc4ccccc43)ccc12`: the melting point amounted to 207 °C. Then `CCN(C(=O)c1ccccc1C(=O)c1ccccc1)C1CCCCC1NS(=O)(=O)c1ccc(C)cc1` (centres undefined), with 202 to 204 °C; and `CCCCOc1cc(C=CC(=O)N2CCN(c3ccc(NC(=N)c4cccs4)cc3)CC2)cc(OCCCC)c1O`, with 65 to 68 °C; and `COc1ccc2cccnc2c1O`, with 113 to 115 °C. `Cc1cc(O)c(CC(=O)OCCC(C)C)cc1O`: the melting point amounted to 99 °C. Then `CCOc1cc(C#N)ccc1C(=O)O`, with 170 to 172 °C.

The values are drawn from a melting point compilation (Tetko et al.; mined from patent text by program, amines drawn as free bases though some values may be those of a salt).
